17 molecules from patent US20260062422A1 (Halda Therapeutics OpCo, Inc., priority 2022, published 2026) can be followed below.

Assay [1] deals with T47D cells. In words: Cellular growth inhibition assay for T47D cells, CellTiter-Glo. Type of assay: cell-based, human. As to conditions: 72 hours treatment, CellTiter-Glo 2.0 cell viability. The essentials:
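Luminescence from CellTiter-Glo 2.0 after 72 h of compound exposure gives the viability signal. Cells grew in insulin-supplemented (0.2 units/mL) DMEM with 10% FBS and were treated one day after seeding at 0.5% DMSO. GI50 values come from four-parameter nonlinear regression.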
In general terms: In ATP-based viability assays light output follows the ATP content of the culture.

For assay [2], the system named is T-Rex 293 cell line SC3 cells having increased expression of androgen receptor protein due to exposure to doxycycline. The experiment in a line: Cellular growth inhibition, T-Rex 293 SC3 cells with doxycycline (androgen receptor induced), CellTiter-Glo. Type of assay: cell-based. As to conditions: T-Rex 293 SC3 cells with 10 ng/mL doxycycline (increased androgen receptor expression). In outline:
(§1)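 Doxycycline-inducible androgen receptor T-Rex 293 clone SC3, seeded at 2500/well in phenol red-free DMEM with 10% charcoal-dextran FBS, without doxycycline or with 10 ng/mL to induce receptor. Compound added after 24 h (0.5% DMSO), 72 h at 37 °C; CellTiter-Glo 2.0 luminescence, GI50 by four-parameter fit.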

The subject of assay [3] is VCaP cells. The experiment in a line: Cellular growth inhibition assay for VCaP cells, CellTiter-Glo. As to conditions: 72 hours treatment, CellTiter-Glo 2.0. Type of assay: cell-based, human. The essentials:
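GI50 values come from four-parameter curve fits of luminescence data normalized to a zero baseline. Compound, in medium with 0.5% DMSO, was added one day after plating and left for 72 h before CellTiter-Glo 2.0 addition.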

Assay [4] concerns T-Rex 293 cell line SC3 cells lacking increased expression of androgen receptor protein. The experiment in a line: Cellular growth inhibition, T-Rex 293 SC3 cells without doxycycline, CellTiter-Glo. Type of assay: cell-based. As to conditions: T-Rex 293 SC3 cells not exposed to doxycycline, CellTiter-Glo 2.0. In outline:
as §1

Usually GI50 stands for the concentration that inhibits growth by half. A high value points to less potent growth inhibition. Consider `Cc1sc2c(c1C)C(c1ccc(CC3CC4(CCCN(c5ncc(C(=O)N[C@H]6C(C)(C)[C@H](Oc7ccc(C#N)c(Cl)c7)C6(C)C)cn5)C4)C3)cc1)=N[C@@H](C)c1nnc(C)n1-2` [Compound I-380], for which the GI50 in assay [1] (Homo sapiens, T47D, 72 h) was above 3000 nM; in assay [2] (72 h), below 500 nM; in assay [3] (Homo sapiens, VCaP, 72 h), below 500 nM; in assay [4] (72 h) it was above 3000 nM.
With `Cc1sc2c(c1C)C(c1ccc([C@H]3C[C@@H](C[C@@H]4CCCN(c5ncc(C(=O)N[C@H]6C(C)(C)[C@H](Oc7ccc(C#N)c(Cl)c7)C6(C)C)cn5)C4)C3)cc1)=N[C@@H](Cc1ncco1)c1nnc(C)n1-2` [Compound I-400], the 50% growth inhibitory concentration (GI50) in assay [1] (Homo sapiens, T47D, 72 h) is above 3000 nM; in assay [2] (72 h), above 3000 nM; in assay [3] (Homo sapiens, VCaP, 72 h), above 3000 nM; in assay [4] (72 h) it was above 3000 nM.
For the molecule `CC[C@@H]1N=C(c2ccc(CC3CCC4(C3)CN(c3ncc(C(=O)N[C@H]5C(C)(C)[C@H](Oc6ccc(C#N)c(Cl)c6)C5(C)C)cn3)CCO4)cc2)c2c(sc(C)c2C)-n2c(C)nnc21` (some centres unmarked) [Compound I-615], the concentration for 50% growth inhibition (GI50) in assay [1] is above 3000 nM; in assay [2] (72 hours) it was below 500 nM; in assay [3], below 500 nM; in assay [4] (72 hours), below 500 nM.
Consider `Cc1sc2c(c1C)C(c1ccc(O[C@H]3CO[C@@]4(CCCN(c5ncc(C(=O)N[C@H]6C(C)(C)[C@H](Oc7ccc(C#N)c(Cl)c7)C6(C)C)cn5)C4)C3)cc1)=N[C@@H](Cc1ncco1)c1nnc(C)n1-2` [Compound I-186], for which the GI50 was 500 to 1500 nM in assay [1] (Homo sapiens, T47D, 72 h); below 500 nM in assay [2] (72 h); below 500 nM in assay [3] (Homo sapiens, VCaP, 72 h); below 500 nM in assay [4] (72 h).
Consider `Cc1sc2c(c1C)C(c1ccc(OC3CC4(C3)CC3(CCN(c5ncc(C(=O)N[C@H]6C(C)(C)[C@H](Oc7ccc(C#N)c(Cl)c7)C6(C)C)c(Cl)n5)CC3)C4)cc1)=N[C@@H](Cc1ncco1)c1nnc(C)n1-2` [Compound I-672, 4-chloro-N-((1r,3r)-3-(3-chloro-4-cyanophenoxy)-2,2,4,4-tetramethylcyclobutyl)-2-(2-(4-((S)-2,3,9-trimethyl-6-(oxazol-2-ylmethyl)-6H-thieno[3,2-f][1,2,4]triazolo[4,3-a][1,4]diazepin-4-yl)phenoxy)-9-azadispiro[3.1.56.14]dodecan-9-yl)pyrimidine-5-carboxamide], for which the GI50 in assay [1] (Homo sapiens, T47D, 72 h) is below 500 nM; in assay [2] (72 h), above 3000 nM; in assay [3] (Homo sapiens, VCaP, 72 h), below 500 nM; in assay [4] (72 h), above 3000 nM.
On to `CCNC(=O)C[C@@H]1N=C(c2ccc(CCCOC3CCN(c4ncc(C(=O)N[C@H]5C(C)(C)[C@H](Oc6ccc(C#N)c(Cl)c6)C5(C)C)cn4)CC3)cc2)c2c(sc(C)c2C)-n2c(C)nnc21` [Compound I-87, N-[3-(3-chloro-4-cyano-phenoxy)-2,2,4,4-tetramethyl-cyclobutyl]-2-[4-[3-[4-[(9S)-9-[2-(ethylamino)-2-oxo-ethyl]-4,5,13-trimethyl-3-thia-1,8,11,12-tetrazatricyclo[8.3.0.02,6]trideca-2(6),4,7,10,12-pentaen-7-yl]phenyl]propoxy]-1-piperidyl]pyrimidine-5-carboxamide], for which the GI50 in assay [1] (Homo sapiens, T47D, 72 h) was below 500 nM; in assay [2] (72 h), below 500 nM; in assay [3] (Homo sapiens, VCaP, 72 h), below 500 nM; in assay [4] (72 h), below 500 nM.
Turning to `Cc1sc2c(c1C)C(c1ccc([C@H]3C[C@@H](C4CCN(c5ncc(C(=O)N[C@H]6C(C)(C)[C@H](Oc7ccc(C#N)c(Cl)c7)C6(C)C)cn5)CC4)C3)cc1)=N[C@@H](Cc1ncco1)c1nnc(C)n1-2` [Compound I-398], the GI50 in assay [1] (Homo sapiens, T47D, 72 h) was below 500 nM; in assay [2] (72 h) it was below 500 nM; in assay [3] (Homo sapiens, VCaP, 72 h), below 500 nM; in assay [4] (72 h), above 3000 nM.
Consider `Cc1sc2c(c1C)C(c1ccc(N3CC4(CCN(c5ncc(C(=O)N[C@H]6C(C)(C)[C@H](Oc7ccc(C#N)c(Cl)c7)C6(C)C)cn5)C4)C3)cc1)=NC(Cc1ncco1)c1nnc(C)n1-2` (some centres unmarked) [Compound I-656], for which the GI50 in assay [1] (Homo sapiens, T47D, 72 h) is below 500 nM; in assay [2] (72 h), below 500 nM; in assay [3] (Homo sapiens, VCaP, 72 h), below 500 nM; in assay [4] (72 h), 500 to 1500 nM.
In the case of `Cc1sc2c(c1C)C(c1ccc([C@H]3C[C@@H]([C@H]4CCN(c5ncc(C(=O)N[C@H]6C(C)(C)[C@H](Oc7ccc(C#N)c(Cl)c7)C6(C)C)cn5)C4)C3)cc1)=N[C@@H](Cc1ncco1)c1nnc(C)n1-2` [Compound I-415], the 50% growth inhibitory concentration (GI50) is above 3000 nM in assay [1] (Homo sapiens, T47D, 72 h); above 3000 nM in assay [2] (72 h); above 3000 nM in assay [3] (Homo sapiens, VCaP, 72 h); above 3000 nM in assay [4] (72 h).
Consider `Cc1sc2c(c1C)C(c1ccc(CCCC3CCN(c4ncc(C(=O)N[C@H]5C(C)(C)[C@H](Oc6ccc(C#N)c(Cl)c6)C5(C)C)cn4)CC3)cc1)=NC(Cc1ncco1)c1nnc(C)n1-2` (some centres unmarked) [Compound I-133], for which the 50% growth inhibitory concentration (GI50) in assay [1] (Homo sapiens, T47D, 72 h) was below 500 nM; in assay [2] (72 h), below 500 nM; in assay [3] (Homo sapiens, VCaP, 72 h), below 500 nM; in assay [4] (72 h) it was 500 to 1500 nM.
As for `Cc1sc2c(c1C)C(c1ccc(N3CC(C4CCCN(c5ncc(C(=O)N[C@H]6C(C)(C)[C@H](Oc7ccc(C#N)c(Cl)c7)C6(C)C)cn5)C4)C3)cc1)=N[C@@H](C)c1nnc(C)n1-2` (some centres unmarked) [Compound I-474], the concentration for 50% growth inhibition (GI50) in assay [1] was below 500 nM; in assay [2] (72 hours) it was below 500 nM; in assay [3] it was above 3000 nM; in assay [4] (72 hours), 500 to 1500 nM.
For the molecule `Cc1sc2c(c1C)C(c1ccc(Nc3ccc(N4CCN(c5ncc(C(=O)N[C@H]6C(C)(C)[C@H](Oc7ccc(C#N)c(Cl)c7)C6(C)C)cn5)CC4)c(C(F)(F)F)c3)cc1)=N[C@@H](C)c1nnc(C)n1-2` [Compound I-602], the GI50 in assay [1] (Homo sapiens, T47D, 72 h) was above 3000 nM; in assay [2] (72 h), above 3000 nM; in assay [3] (Homo sapiens, VCaP, 72 h), above 3000 nM; in assay [4] (72 h), above 3000 nM.
As to `Cc1sc2c(c1C)C(c1ccc(CCN3CCC4(CCCN(c5ncc(C(=O)N[C@H]6C(C)(C)[C@H](Oc7ccc(C#N)c(Cl)c7)C6(C)C)cn5)C4)C3)cc1)=N[C@@H](Cc1ncco1)c1nnc(C)n1-2` (some centres unmarked) [Compound I-147], the GI50 was below 500 nM in assay [1] (Homo sapiens, T47D, 72 h); below 500 nM in assay [2] (72 h); below 500 nM in assay [3] (Homo sapiens, VCaP, 72 h); 500 to 1500 nM in assay [4] (72 h).
Regarding `Cc1sc2c(c1C)C(c1ccc(N3CC(CC4CN(c5ncc(C(=O)N[C@H]6C(C)(C)[C@H](Oc7ccc(C#N)c(Cl)c7)C6(C)C)cn5)C4)C3)cc1)=N[C@@H](C)c1nnc(C)n1-2` [Compound I-514], the GI50 in assay [1] (Homo sapiens, T47D, 72 h) was 500 to 1500 nM; in assay [2] (72 h), below 500 nM; in assay [3] (Homo sapiens, VCaP, 72 h), above 3000 nM; in assay [4] (72 h), above 3000 nM.
With `CC[C@@H]1N=C(c2ccc(CC3CC4(CCN(c5cnc(C(=O)N[C@H]6C(C)(C)[C@H](Oc7ccc(C#N)c(Cl)c7)C6(C)C)cn5)CC4)C3)cc2)c2c(sc(C)c2C)-n2c(C)nnc21` [Compound I-597], the GI50 in assay [1] (Homo sapiens, T47D, 72 h) was below 500 nM; in assay [2] (72 h) it was above 3000 nM; in assay [3] (Homo sapiens, VCaP, 72 h) it was below 500 nM; in assay [4] (72 h), above 3000 nM.
For `Cc1sc2c(c1C)C(c1ccc(C3CC(N4CCN(c5cnc(C(=O)N[C@H]6C(C)(C)[C@H](Oc7ccc(C#N)c(Cl)c7)C6(C)C)cn5)CC4)C3)cc1)=N[C@@H](C)c1nnc(C)n1-2` (some centres unmarked) [Compound I-573], the GI50 in assay [1] (Homo sapiens, T47D, 72 h) is below 500 nM; in assay [2] (72 h), below 500 nM; in assay [3] (Homo sapiens, VCaP, 72 h), below 500 nM; in assay [4] (72 h) it was 500 to 1500 nM.
As for `CCNC(=O)C[C@@H]1N=C(c2ccc(OC3CN(CC4CCN(c5ncc(C(=O)N[C@H]6C(C)(C)[C@H](Oc7ccc(C#N)c(Cl)c7)C6(C)C)cn5)CC4)C3)cc2)c2c(sc(C)c2C)-n2c(C)nnc21` [Compound I-79], the GI50 is below 500 nM in assay [1] (Homo sapiens, T47D, 72 h); below 500 nM in assay [2] (72 h); below 500 nM in assay [3] (Homo sapiens, VCaP, 72 h); 500 to 1500 nM in assay [4] (72 h).
